Results as given in patent publication US20260182575A1, “MOLECULES HAVING PESTICIDAL UTILITY AND INTERMEDIATES AND PROCESSES RELATED THERETO” (CORTEVA AGRISCIENCE LLC, priority 2022, published 2026).
Where “and” joins values, the source holds several entries; their conditions need not be identical. Equal entries are not always repeated.

What was measured:
[1] = tested on: Soybean Looper (Chrysodeixis includens, PSEPIN, SBL); test: Bioassay 4: soybean looper, artificial diet, 128-cell tray; type: in vivo; details: AI alone
How it was run: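 Test solutions (0.0000004–0.04% w/v, i.e. 0.00005–5 μg/cm² on diet) were pipetted onto artificial lepidopteran diet and one 2nd-instar larva was placed per cell, 8 replicates per species, held at ~26° C. Live larvae were counted after 5 days; percent control used Abbott's correction against a solvent check.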

[2] = tested on: Western Flower Thrips (Frankliniella occidentalis, FRANOC, WFT); test: Bioassay 3: western flower thrips, cotton leaf disc dip; type: in vivo; details: for Average % Control AI: 3 days; for Average % Control F1: F1 alone, 3 days after treatment
[3] = AI alone at 1:1 rate to F1 3.125 (10^-6 Wt %)
[4] = AI alone at 1:1 rate to F1 0.78 (10^-6 Wt %)

| Compound | Average % Control AI ([1]; 0.000004 wt %) | Average % Control AI ([1]; 0.00004 wt %) | Average % Control AI [2, 3] | other results |
| --- | --- | --- | --- | --- |
| Cc1c(COC(=O)[C@@H]2[C@H](/C=C(\Cl)C(F)(F)F)C2(C)C)cccc1-c1ccccc1 (racemic) [Bifenthrin] | 0.0% | 0.0% | 11.5% |  |
| C[C@]1(COC(=O)C2CC2)[C@@H]2C[C@H](O)[C@@]3(C)Oc4cc(-c5cccnc5)oc(=O)c4[C@H](O)[C@@H]3[C@@]2(C)CC[C@@H]1OC(=O)C1CC1 [Afidopyropen] | 0.0% | 0.0% |  | Average % Control AI ([2]; AI alone at 1:1 rate to F1 12.5 (10^-6 Wt %)): 0.0%; Average % Control AI ([2]; AI alone at 1:1 rate to F1 50 (10^-6 Wt %)): 5.7% |
| Cc1ccc(COCC(F)(F)F)c(N2C(=O)CS/C2=N\C(=O)Nc2ccc(-c3ncn(-c4ccc(OC(F)(F)F)cc4)n3)cc2F)c1 [F1] |  |  |  | Average % Control F1 ([2]; Wt % F1 (10^-6) 0.195, cotton leaf disc): 0.0% and 5.7%; Average % Control F1 ([2]; Wt % F1 (10^-6) 12.5, cotton leaf disc): 46.0%; Average % Control F1 ([2]; Wt % F1 (10^-6) 50, cotton leaf disc): 79.3% |
| CON=CNC(=O)c1ccc(C2=NOC(c3cc(Cl)cc(Cl)c3)(C(F)(F)F)C2)cc1C (stereo not shown) [Fluxametamide] | 12.5% |  | 4.8% |  |
| COC(=O)N(C(=O)N1CO[C@@]2(C(=O)OC)Cc3cc(Cl)ccc3C2=N1)c1ccc(OC(F)(F)F)cc1 [Indoxacarb] | 0.0% |  |  |  |
| CC1=NNC(=O)N(/N=C/c2cccnc2)C1 [Pymetrozine] | 12.5% |  | 21.4% |  |
| CN1COCN(Cc2cnc(Cl)s2)/C1=N\[N+](=O)[O-] [Thiamethoxam] | 0.0% |  | 6.7% | Average % Control AI ([2]; AI alone at 1:1 rate to F1 0.195 (10^-6 Wt %)): 20.0%; Average % Control AI [2, 4]: 20.0% |
| Chlorfenapyr | 25.0% | 37.5% |  | Average % Control AI [2, 4]: 16.7% |
